# Measurements: patent publication US20240294548A1, “TRICYCLIC SULTAMS AND SULFAMIDES AS ANTITUMOR AGENTS” (PELOTON THERAPEUTICS INC., priority 2021, published 2024)
# Key:
# [1] = tested on: HCT116 human colorectal carcinoma cells; experiment: CellTiter-Glo assay (cell viability); assay type: cell-based; settings: HCT-116, 72 h, HCT116 cells, 3 days, CellTiter-Glo luminescence, read-out: CTG IC50
# Description: HCT116 human colorectal carcinoma cells were used in these experiments. HCT116 cells were obtained from ATCC. CellTiter-Glo® Luminescent Cell Viability Assay Reagent was obtained from Promega.
# About 3,000 cells were seeded into 96-well plate with 100 μL of media (DMEM supplemented with 10% FBS, 100 units penicillin, and […] streptomycin per mL) the day before the experiment. For compound treatment, the master plate was prepared as follows: 100× compound stocks were prepared in a 96-well plate by 1 to 3 serial dilutions of 0.5 mM DMSO stocks. Each master plate contained serial dilution of 8 compounds, including the control compound E7820. […] of 100× compound stock was added to each well of the assay plate to give final concentrations of […]. Each concentration was tested in triplicate. After 3 days, cell viability was determined using CellTiter-Glo Luminescent Cell Viability Assay Reagent following the manufacturer's recommended protocol. Briefly, […] of CellTiter-Glo reagent was added to each well of the assay plate and the contents were mixed for 3 minutes at 600 rpm on a shaker (Thermomixer R). The plate was immediately placed in a plate reader (Synergy 2) and the luminescence signal (0.5 second per well integration time) was determined. IC50 values were calculated using Dotmatics software.
# [2] = target: T1, DCAF15 (DDA1-DDB1ΔB-DCAF15Δpro) (Homo sapiens, UniProt Q66K64, DEL276-383); experiment: DCAF15 displacement assay (displacement FRET, probe PT7795); assay type: binding; settings: displacement of PT7795 (300 nM), compound 0.01 to 100 μM, 18 hours incubation; read-out: DCAF15 displacement IC50
# T1 construct: made in house; host or cells: Sf9 (Bac-to-Bac baculovirus)
# [3] = target: T2, DCAF15 RBM39 ternary complex (Homo sapiens, UniProt Q14498+Q66K64, DEL276-383); experiment: DCAF15 RBM39 complex formation assay (FRET); assay type: biochemical; settings: FRET ratio, 20 nM DDB1DB/DCAF15, 50 nM RBM39 R1R2, overnight at 4° C.; read-out: DCAF15 RBM39 ternary complex EC50
# T2 construct: Amino acids 150 to 331 of RBM39 were cloned into pGEX4T3; GST (from the pGEX4T3 vector, own knowledge) followed by a TEV cleavage site (N); made in house; host or cells: Sf9 baculovirus (DDB1ΔB/DCAF15); E. coli (RBM39 R1R2)
# T2 sequence (Q66K64 with tags, fused parts or gaps DEL276-383): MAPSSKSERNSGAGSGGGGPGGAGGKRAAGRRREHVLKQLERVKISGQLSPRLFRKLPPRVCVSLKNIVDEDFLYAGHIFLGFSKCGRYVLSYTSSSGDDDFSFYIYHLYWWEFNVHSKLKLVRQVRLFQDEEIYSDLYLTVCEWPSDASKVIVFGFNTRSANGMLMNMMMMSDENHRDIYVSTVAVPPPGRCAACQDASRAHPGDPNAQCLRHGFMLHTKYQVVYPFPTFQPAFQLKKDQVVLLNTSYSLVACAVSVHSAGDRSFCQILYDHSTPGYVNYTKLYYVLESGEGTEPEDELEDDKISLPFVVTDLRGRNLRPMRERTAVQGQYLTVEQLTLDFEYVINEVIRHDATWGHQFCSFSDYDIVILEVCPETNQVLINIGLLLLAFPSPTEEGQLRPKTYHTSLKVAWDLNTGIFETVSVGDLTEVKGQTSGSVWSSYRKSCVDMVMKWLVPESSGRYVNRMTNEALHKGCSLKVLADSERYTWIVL
# T2 sequence (Q14498 150-331, stated change not applied): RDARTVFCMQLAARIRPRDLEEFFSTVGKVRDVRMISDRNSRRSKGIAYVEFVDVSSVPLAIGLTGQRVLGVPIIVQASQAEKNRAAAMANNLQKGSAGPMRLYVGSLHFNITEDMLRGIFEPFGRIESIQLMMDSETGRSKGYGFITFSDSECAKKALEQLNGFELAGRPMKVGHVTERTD
# Method in brief: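 Mix of 20 nM DDB1DB/DCAF15, 50 nM RBM39 R1R2, 0.2 nM Eu-anti-6×His and 50 nM APC-anti-FLAG (25 mM HEPES pH 7.5, 100 mM NaCl). Compounds, 1 μM down in 3-fold steps over 14 points, kept overnight at 4 °C.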
SMILES,IC50 [1] [µM],IC50 [2] [µM],EC50 [3] [µM]
"Cn1cc(CN2Cc3cc(Cl)c4c(Cl)c[nH]c4c3NS2(=O)=O)cn1 [Compound 43, 6,7-dichloro-3-((1-methyl-1H-pyrazol-4-yl)methyl)-1,3,4,9-tetrahydro-[1,2,6] thiadiazino[4,3-g]indole 2,2-dioxide]",0.246,1.05,0.0027
"N#Cc1ccccc1CN1Cc2cc(Cl)c3c(Cl)c[nH]c3c2NS1(=O)=O [Compound 46, 2-((6,7-dichloro-2,2-dioxido-4,9-dihydro-[1,2,6]thiadiazino[4,3-g]indol-3(1H)-yl)methyl) benzonitrile]",0.278,0.294,0.0016
"CC(=O)N1CC(CN2Cc3cc(Cl)c4c(Cl)c[nH]c4c3NS2(=O)=O)C1 [Compound 47, 1-(3-((6,7-dichloro-2,2-dioxido-4,9-dihydro-[1,2,6]thiadiazino[4,3-g]indol-3(1H)-yl)methyl)azetidin-1-yl) ethan-1-one]",0.393,0.39,0.0004
"Cc1ccc(CN2Cc3cc(Cl)c4c(Cl)c[nH]c4c3NS2(=O)=O)cn1 [Compound 48, 6,7-dichloro-3-((6-methylpyridin-3-yl)methyl)-1,3,4,9-tetrahydro-[1,2,6] thiadiazino[4,3-g]indole 2,2-dioxide]",0.259,0.623,0.0006
"O=S1(=O)Nc2c(cc(Cl)c3c(Cl)c[nH]c23)CN1Cc1ccc(C(F)(F)F)nc1 [Compound 49, 6,7-dichloro-3-((6-(trifluoromethyl)pyridin-3-yl)methyl)-1,3,4,9-tetrahydro-[1,2,6] thiadiazino[4,3-g]indole 2,2-dioxide]",2.25,8.39,0.0007
"N#Cc1ccc(CN2Cc3cc(Cl)c4c(Cl)c[nH]c4c3NS2(=O)=O)cc1 [Compound 50, 4-((6,7-dichloro-2,2-dioxido-4,9-dihydro-[1,2,6]thiadiazino[4,3-g]indol-3(1H)-yl)methyl) benzonitrile]",0.881,5.71,0.0011
"N#Cc1cccc(CN2Cc3cc(Cl)c4c(Cl)c[nH]c4c3NS2(=O)=O)c1 [Compound 51, 3-((6,7-dichloro-2,2-dioxido-4,9-dihydro-[1,2,6]thiadiazino[4,3-g]indol-3(1H)-yl)methyl) benzonitrile]",0.283,4.41,0.0015
"O=S1(=O)Nc2c(cc(Cl)c3c(Cl)c[nH]c23)CN1Cc1ccc(C(F)F)nc1 [Compound 53, 6,7-dichloro-3-((6-(difluoromethyl)pyridin-3-yl)methyl)-1,3,4,9-tetrahydro-[1,2,6]thiadiazino [4,3-g]indole 2,2-dioxide]",0.394,4.28,0.0034
"O=c1cccc(CN2Cc3cc(Cl)c4c(Cl)c[nH]c4c3NS2(=O)=O)[nH]1 [Compound 57, 6-((6,7-dichloro-2,2-dioxido-4,9-dihydro-[1,2,6]thiadiazino[4,3-g]indol-3(1H)-yl)methyl)pyridin-2(1H)-one]",0.525,1,0.004
"N#Cc1c[nH]c2c3c(cc(Cl)c12)CNS(=O)(=O)N3 [Compound 58, 6-chloro-1,3,4,9-tetrahydro-[1,2,6]thiadiazino[4,3-g]indole-7-carbonitrile 2,2-dioxide]",5,14.9,0.0462
"O=c1cc(CN2Cc3cc(Cl)c4c(Cl)c[nH]c4c3NS2(=O)=O)cc[nH]1 [Compound 60, 4-((6,7-dichloro-2,2-dioxido-4,9-dihydro-[1,2,6]thiadiazino[4,3-g]indol-3(1H)-yl)methyl)pyridin-2(1H)-one]",2.84,0.162,0.0024
"O=S1(=O)Nc2c(cc(Cl)c3c(Cl)c[nH]c23)CN1Cc1ccnc(Cl)c1 [Compound 63, 6,7-dichloro-3-((2-chloropyridin-4-yl)methyl)-1,3,4,9-tetrahydro-[1,2,6] thiadiazino[4,3-g]indole 2,2-dioxide]",0.351,0.328,0.001
"COCCN1Cc2cc(Cl)c3c(Cl)n[nH]c3c2NS1(=O)=O [Compound 64, 6,7-dichloro-3-(2-methoxyethyl)-1,3,4,9-tetrahydro-[1,2,6]thiadiazino[4,3-g]indazole 2,2-dioxide]",5,4.56,0.01
"Cn1cc(CN2Cc3cc(Cl)c4c(Cl)c[nH]c4c3NS2(=O)=O)ccc1=O [Compound 65, 5-((6,7-dichloro-2,2-dioxido-4,9-dihydro-[1,2,6]thiadiazino[4,3-g]indol-3(1H)-yl)methyl)-1-methylpyridin-2(1H)-one]",0.493,0.934,0.0019
"CC1(C)Cc2cc(Cl)c3c(Cl)c[nH]c3c2NS1(=O)=O [Compound 66, 6,7-dichloro-3,3-dimethyl-1,3,4,9-tetrahydro-[1,2]thiazino[4,3-g]indole 2,2-dioxide]",5,≥ 100,0.108
"O=S1(=O)Nc2c(cc(Cl)c3c(Cl)c[nH]c23)CN1Cc1ccnnc1 [Compound 67, 6,7-dichloro-3-(pyridazin-4-ylmethyl)-1,3,4,9-tetrahydro-[1,2,6] thiadiazino[4,3-g]indole 2,2-dioxide]",0.32,0.452,0.002
"O=S1(=O)Nc2c(cc(Cl)c3c(Cl)c[nH]c23)CN1Cc1ccc(F)cc1 [Compound 69, 6,7-dichloro-3-(4-fluorobenzyl)-1,3,4,9-tetrahydro-[1,2,6] thiadiazino[4,3-g]indole 2,2-dioxide]",1.2,7.56,0.0039

# Compounds with a lower IC50 [1], results first:
IC50 [1] [µM],IC50 [2] [µM],EC50 [3] [µM],SMILES
0.205,0.63,0.0023,"COCCCN1Cc2cc(Cl)c3c(Cl)c[nH]c3c2NS1(=O)=O [Compound 68, 6,7-dichloro-3-(3-methoxypropyl)-1,3,4,9-tetrahydro-[1,2,6] thiadiazino[4,3-g]indole 2,2-dioxide]"
0.184,1.44,0.0026,"O=S1(=O)Nc2c(cc(Cl)c3c(Cl)c[nH]c23)CN1Cc1cncc(Cl)c1 [Compound 56, 6,7-dichloro-3-((5-chloropyridin-3-yl)methyl)-1,3,4,9-tetrahydro-[1,2,6] thiadiazino[4,3-g]indole 2,2-dioxide]"
0.128,0.371,0.0012,"O=S1(=O)Nc2c(cc(Cl)c3c(Cl)c[nH]c23)CN1Cc1cnccc1Cl [Compound 54, 6,7-dichloro-3-((4-chloropyridin-3-yl)methyl)-1,3,4,9-tetrahydro-[1,2,6] thiadiazino[4,3-g]indole 2,2-dioxide]"
0.12,0.325,0.002,"O=S1(=O)Nc2c(cc(Cl)c3c(Cl)c[nH]c23)CN1Cc1cnccn1 [Compound 59, 6,7-dichloro-3-(pyrazin-2-ylmethyl)-1,3,4,9-tetrahydro-[1,2,6] thiadiazino[4,3-g]indole 2,2-dioxide]"
0.108,0.174,0.0017,"Cc1ccncc1CN1Cc2cc(Cl)c3c(Cl)c[nH]c3c2NS1(=O)=O [Compound 55, 6,7-dichloro-3-((4-methylpyridin-3-yl)methyl)-1,3,4,9-tetrahydro-[1,2,6] thiadiazino[4,3-g]indole 2,2-dioxide]"
0.0937,0.58,0.0006,"O=S1(=O)Nc2c(cc(Cl)c3c(Cl)c[nH]c23)CN1Cc1ccncn1 [Compound 52, 6,7-dichloro-3-(pyrimidin-4-ylmethyl)-1,3,4,9-tetrahydro-[1,2,6] thiadiazino[4,3-g]indole 2,2-dioxide]"
0.0622,0.276,0.0018,"O=S1(=O)Nc2c(cc(Cl)c3c(Cl)c[nH]c23)CN1CC1CCOCC1 [Compound 44, 6,7-dichloro-3-((tetrahydro-2H-pyran-4-yl)methyl)-1,3,4,9-tetrahydro-[1,2,6] thiadiazino[4,3-g]indole 2,2-dioxide]"
0.0528,0.127,0.0016,"CC(=O)N1CCC(CN2Cc3cc(Cl)c4c(Cl)c[nH]c4c3NS2(=O)=O)CC1 [Compound 45, 1-(4-((6,7-dichloro-2,2-dioxido-4,9-dihydro-[1,2,6]thiadiazino[4,3-g]indol-3(1H)-yl)methyl)piperidin-1-yl)ethan-1-one]"
